Experimental data taken from patent publication US12410113B2, “Sandalwood-type fragrance compounds” (SYMRISE AG, priority 2019, dated 2025).

Assay: Odor detection threshold (ODT) by olfactometer TO8 and a panel of experts according to EN 13725
Conditions: for ODT (exp.) (−log): odor detection threshold as −log; for ODT (exp.) / ODT* (exp.) (ppm (v/v)): odor detection threshold, olfactometer TO8, expert panel, EN 13725
Method: The ODT was measured by an olfactometer TO8 and a panel of experts according to standard EN 13725.

| SMILES | ODT (exp.) (−log) | ODT (exp.) | ODT* (exp.) (ppm (v/v)) | factor by which threshold value is lower than Brahmanol (in comparison with Brahmanol) |
| --- | --- | --- | --- | --- |
| CC1=CCC(CCC(C)CO)C1(C)C (stereo not shown) [Brahmanol, 2-methyl-4-(2′,2′,3′-trimethyl-3′-cyclopenten-1′-yl)-butan-1-ol, reference compound] | 6.85E+00 | 141.22 ng/L | 1.73E−02 ppm (v/v) | – |
| C=C(CO)CCC1CC=C(C)C1(C)C (stereo not shown) [Compound A, 2-methylene-4-(2,2,3-trimethylcyclopent-3-en-1-yl)butan-1-ol] | 8.36E+00 | 4.34 ng/L | 5.37E−04 ppm (v/v) | about 35 |
